According to patent US20250163104A1, “MACROCYCLIC IMMUNOMODULATORS” (priority 2021, published 2025):
pIC50: −log10 of the molar value. Where a SMILES comes first, the peptide text is derived from it. Bridges are numbered along the chain shown (N, C = ends). [ ]: non-standard residue; d: D form. The star is where a group is joined. ξ: configuration not given here. Phe(4-COOH) = N[C@@H](Cc1ccc(C(=O)O)cc1)C(=O)O; Bip = N[C@@H](Cc1ccc(-c2ccccc2)cc1)C(=O)O; Phe(3-Me) = Cc1cccc(C[C@H](N)C(=O)O)c1; hArg = N=C(N)NCCCC[C@H](N)C(=O)O; hPhe = N[C@@H](CCc1ccccc1)C(=O)O; 3Pal = N[C@@H](Cc1cccnc1)C(=O)O; 4Pal = N[C@@H](Cc1ccncc1)C(=O)O; Cha = N[C@@H](CC1CCCCC1)C(=O)O; Cit = NC(=O)NCCC[C@H](N)C(=O)O; Ile(3ξ) = CCC(C)[C@H](N)C(=O)O; Thr(3ξ) = CC(O)[C@H](N)C(=O)O; Hpra = C#CCC[C@H](N)C(=O)O; Carboxymethyl = O=C(O)C*; NMeA = CN[C@@H](C)C(=O)O; Orn = NCCC[C@H](N)C(=O)O; Dab = NCC[C@H](N)C(=O)O; Dap = NC[C@H](N)C(=O)O

molecular target: T1, human PD-1 / PD-L1-Ig binding on Jurkat cell line over-expressing human PD-1 (Jurkat-PD-1) (Homo sapiens, UniProt Q15116); experiment: Jurkat-PD-1 Cell Binding High-Content Screening Assay (CBA); type: cell-based; settings: Jurkat-PD-1 cells, PE-labeled PD-L1-Ig 20 nM final; read-out: Jurkat HPD1_PDL1 IC50
T1 construct: expressed in transfected cells; host or cells: Jurkat
Summary of the method: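 PE-PD-L1-Ig 20 nM final; cells in DMEM/10% FCS; cpd pre-incubation 2 h, 37° C; ligand 1 h; PFA fix + Hoechst 33342; high-content imaging read-out.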

T1 sequence (Q15116 25-288): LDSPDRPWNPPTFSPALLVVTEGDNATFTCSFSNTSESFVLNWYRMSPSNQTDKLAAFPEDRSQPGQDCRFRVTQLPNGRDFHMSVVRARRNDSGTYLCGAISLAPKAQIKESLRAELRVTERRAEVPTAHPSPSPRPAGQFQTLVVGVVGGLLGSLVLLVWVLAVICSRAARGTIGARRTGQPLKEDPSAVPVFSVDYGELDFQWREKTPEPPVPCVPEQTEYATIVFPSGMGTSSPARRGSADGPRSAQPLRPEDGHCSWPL

Row | pIC50 | SMILES
1 | 8.31 | CC(C)C[C@H]1NC(=O)[C@H](CCCN)NC(=O)[C@H](C(C)C)NC(=O)[C@H](Cc2ccc(-c3ccccc3)cc2)NC(=O)[C@H](C(C)C)NC(=O)[C@H](Cc2c[nH]c3ccccc23)NC(=O)[C@H](CC(=O)O)NC(=O)[C@H](Cc2ccc(OCC(=O)O)cc2)NC(=O)[C@H](C(C)O)NC(=O)CSC[C@@H](C(=O)N[C@@H](CC(N)=O)C(N)=O)NC(=O)[C@H](CO)NC(=O)[C@H](C(C)C)NC(=O)[C@H](CC2CCCCC2)NC(=O)[C@H](CCN)NC1=O (stereo partly drawn) [Compound 2550] ({CH2CO}-[Thr(3ξ)]Y(Carboxymethyl)DWV[Bip]V[Orn][dL][Dab][Cha]VSCN-NH2; thioether N-14)
2 | 6.79 | CCC(C)[C@@H]1NC(=O)[C@H](Cc2c[nH]c3ccccc23)NC(=O)[C@H](CC(=O)O)NC(=O)[C@H](Cc2ccc(OCC(=O)O)cc2)NC(=O)[C@H](C(C)O)NC(=O)CSC[C@@H](C(=O)N[C@@H](CC(N)=O)C(=O)O)NC(=O)[C@H](CO)NC(=O)[C@H](C(C)C)NC(=O)[C@H](CC(C)C)NC(=O)[C@H](CCN)NC(=O)[C@@H](CC(C)C)NC(=O)[C@H](CCCN)NC(=O)[C@H](C(C)CC)NC(=O)[C@H](Cc2ccc(-c3ccccc3)cc2)NC1=O (stereo partly drawn) [Compound 2573] ({CH2CO}-[Thr(3ξ)]Y(Carboxymethyl)DW[Ile(3ξ)][Bip][Ile(3ξ)][Orn][dL][Dab]LVSCN-OH; thioether N-14)
3 | 7.73 | CC(C)C[C@H]1NC(=O)[C@H](CCCN)NC(=O)[C@H](C(C)C)NC(=O)[C@H](Cc2ccc(-c3ccccc3)cc2)NC(=O)[C@H](C(C)C)NC(=O)[C@H](Cc2c[nH]c3ccccc23)NC(=O)[C@H](CC(=O)O)NC(=O)[C@H](Cc2ccc(OCC(=O)O)cc2)NC(=O)[C@H](CCCCNC(=N)N)NC(=O)CSC[C@@H](C(=O)N(C)[C@@H](C)C(N)=O)NC(=O)[C@H](CO)NC(=O)[C@H](C(C)C)NC(=O)[C@H](CC2CCCCC2)NC(=O)[C@H](CCN)NC1=O [Compound 2569] ({CH2CO}-[hArg]Y(Carboxymethyl)DWV[Bip]V[Orn][dL][Dab][Cha]VSC[NMeA]-NH2; thioether N-14)
4 | 7.97 | CC(C)C[C@@H]1NC(=O)[C@H](CC(N)=O)NC(=O)[C@@H](CC(C)C)NC(=O)[C@H](CN)NC(=O)[C@H](C(C)C)NC(=O)[C@H](Cc2ccc(-c3ccccc3)cc2)NC(=O)[C@H](C(C)C)NC(=O)[C@H](Cc2c[nH]c3ccccc23)NC(=O)[C@H](CC(=O)O)NC(=O)[C@H](Cc2ccncc2)NC(=O)[C@H](CN)NC(=O)CSC[C@@H](C(=O)NCC(N)=O)NC(=O)[C@H](CO)NC(=O)[C@H](C(C)C)NC1=O [Compound 1293] ({CH2CO}-[Dap][4Pal]DWV[Bip]V[Dap][dL]NLVSCG-NH2; thioether N-14)
5 | 7.91 | CC(C)C[C@H]1NC(=O)[C@H](CCCN)NC(=O)[C@H](C(C)C)NC(=O)[C@H](Cc2ccc(-c3ccccc3)cc2)NC(=O)[C@H](C(C)C)NC(=O)[C@H](Cc2c[nH]c3ccccc23)NC(=O)[C@H](CC(=O)O)NC(=O)[C@H](Cc2ccc(O)cc2)NC(=O)[C@H](CCCNC(=N)N)NC(=O)CSC[C@@H](C(=O)N[C@@H](C)C(N)=O)NC(=O)[C@H](C(C)O)NC(=O)[C@H](C(C)C)NC(=O)[C@H](CC2CCCCC2)NC(=O)[C@H](CCN)NC1=O (stereo partly drawn) [Compound 2524] ({CH2CO}-RYDWV[Bip]V[Orn][dL][Dab][Cha]V[Thr(3ξ)]CA-NH2; thioether N-14)
6 | 8.28 | CC(C)C[C@@H]1NC(=O)[C@H](CCN)NC(=O)[C@@H](CC(C)C)NC(=O)[C@H](CCCN)NC(=O)[C@H](C(C)C)NC(=O)[C@H](Cc2ccc(-c3ccccc3)cc2)NC(=O)[C@H](C(C)C)NC(=O)[C@H](Cc2c[nH]c3ccccc23)NC(=O)[C@H](CC(=O)O)NC(=O)[C@H](Cc2ccc(OCC(=O)O)cc2)NC(=O)[C@H](Cc2ccncc2)NC(=O)CSC[C@@H](C(=O)N[C@@H](C)C(N)=O)NC(=O)[C@H]([C@@H](C)O)NC(=O)[C@H](C(C)C)NC1=O [Compound 1051] ({CH2CO}-[4Pal]Y(Carboxymethyl)DWV[Bip]V[Orn][dL][Dab]LVTCA-NH2; thioether N-14)
7 | 7.57 | CC(C)C[C@H]1NC(=O)[C@H](CN)NC(=O)[C@H](C(C)C)NC(=O)[C@H](Cc2ccc(-c3ccccc3)cc2)NC(=O)[C@H](C(C)C)NC(=O)[C@H](Cc2c[nH]c3ccccc23)NC(=O)[C@H](CC(=O)O)NC(=O)[C@H](Cc2ccc(O)cc2)NC(=O)[C@H](Cc2ccccc2)NC(=O)CSC[C@@H](C(=O)NCC(N)=O)NC(=O)[C@H](CO)NC(=O)[C@H](C(C)C)NC(=O)[C@H](CC2CCCCC2)NC(=O)[C@H](CC(N)=O)NC1=O [Compound 1412] ({CH2CO}-FYDWV[Bip]V[Dap][dL]N[Cha]VSCG-NH2; thioether N-14)
8 | 8.04 | CCC(C)[C@@H]1NC(=O)[C@H](Cc2ccc(-c3ccccc3)cc2)NC(=O)[C@H](C(C)C)NC(=O)[C@H](Cc2cccc(C)c2)NC(=O)[C@H](CC(=O)O)NC(=O)[C@H](Cc2cccnc2)NC(=O)[C@H](CN)NC(=O)CSC[C@@H](C(=O)N[C@@H](C)C(N)=O)NC(=O)[C@H]([C@@H](C)O)NC(=O)[C@H](C(C)C)NC(=O)[C@H](CC2CCCCC2)NC(=O)[C@H](CCN)NC(=O)[C@@H](CC(C)C)NC(=O)[C@H](CCCN)NC1=O (stereo partly drawn) [Compound 2235]
9 | 7.97 | Cc1cccc(C[C@@H]2NC(=O)[C@H](CC(=O)O)NC(=O)[C@H](Cc3ccc(C(=O)O)cc3)NC(=O)[C@H](Cc3ccncc3)NC(=O)CSC[C@@H](C(=O)N[C@H](CC(N)=O)C(N)=O)NC(=O)[C@H](CO)NC(=O)[C@H](C(C)C)NC(=O)[C@H](CC3CCCCC3)NC(=O)[C@H](CCN)NC(=O)[C@@H](CC(C)C)NC(=O)[C@H](CCCN)NC(=O)[C@H](Cc3ccc(O)cc3)NC(=O)[C@H](Cc3ccc(-c4ccccc4)cc3)NC(=O)[C@H](C(C)C)NC2=O)c1 [Compound 2291] ({CH2CO}-[4Pal][Phe(4-COOH)]D[Phe(3-Me)]V[Bip]Y[Orn][dL][Dab][Cha]VSC[dN]-NH2; thioether N-14)
10 | 7.87 | Cc1cccc(C[C@@H]2NC(=O)[C@H](CC(=O)O)NC(=O)[C@H](Cc3ccc(C(=O)O)cc3)NC(=O)[C@H](Cc3ccncc3)NC(=O)CSC[C@@H](C(=O)N[C@H](CC(N)=O)C(N)=O)NC(=O)[C@H]([C@@H](C)O)NC(=O)[C@H](C(C)C)NC(=O)[C@H](CC3CCCCC3)NC(=O)[C@H](CCN)NC(=O)[C@@H](CC(C)C)NC(=O)[C@H](CCCN)NC(=O)[C@H](Cc3ccc(O)cc3)NC(=O)[C@H](Cc3ccc(-c4ccccc4)cc3)NC(=O)[C@H](C(C)C)NC2=O)c1 [Compound 2290] ({CH2CO}-[4Pal][Phe(4-COOH)]D[Phe(3-Me)]V[Bip]Y[Orn][dL][Dab][Cha]VTC[dN]-NH2; thioether N-14)
11 | 7.82 | C#CCC[C@@H]1NC(=O)[C@@H](CC(C)C)NC(=O)[C@H](CCCN)NC(=O)[C@H](C(C)C)NC(=O)[C@H](Cc2ccc(-c3ccccc3)cc2)NC(=O)[C@H](C(C)C)NC(=O)[C@H](Cc2cccc(C)c2)NC(=O)[C@H](CC(=O)O)NC(=O)[C@H](Cc2ccc(C(=O)O)cc2)NC(=O)[C@H](CN)NC(=O)CSC[C@@H](C(=O)N[C@@H](CCN)C(N)=O)NC(=O)[C@H]([C@@H](C)O)NC(=O)[C@H](C(C)C)NC(=O)[C@H](CC2CCCCC2)NC1=O [Compound 2025] ({CH2CO}-[Dap][Phe(4-COOH)]D[Phe(3-Me)]V[Bip]V[Orn][dL][Hpra][Cha]VTC[Dab]-NH2; thioether N-14)
12 | 7.99 | Cc1cccc(C[C@@H]2NC(=O)[C@H](CC(=O)O)NC(=O)[C@H](Cc3ccc(C(=O)O)cc3)NC(=O)[C@H](Cc3ccncc3)NC(=O)CSC[C@@H](C(=O)N[C@@H](CC(N)=O)C(N)=O)NC(=O)[C@H](CCC(N)=O)NC(=O)[C@H](C(C)C)NC(=O)[C@H](CC3CCCCC3)NC(=O)[C@H](CCN)NC(=O)[C@@H](CC(C)C)NC(=O)[C@H](CCCN)NC(=O)[C@H](Cc3ccc(OCC(=O)O)cc3)NC(=O)[C@H](Cc3ccc(-c4ccccc4)cc3)NC(=O)[C@H](Cc3ccc(OCC(=O)O)cc3)NC2=O)c1 [Compound 2305] ({CH2CO}-[4Pal][Phe(4-COOH)]D[Phe(3-Me)]Y(Carboxymethyl)[Bip]Y(Carboxymethyl)[Orn][dL][Dab][Cha]VQCN-NH2; thioether N-14)
13 | 7.24 | CC(C)C[C@H]1NC(=O)[C@H](CCCN)NC(=O)[C@H](CCCNC(N)=O)NC(=O)[C@H](Cc2ccc(-c3ccccc3)cc2)NC(=O)[C@H](C(C)C)NC(=O)[C@H](Cc2c[nH]c3ccccc23)NC(=O)[C@H](CC(=O)O)NC(=O)[C@H](Cc2ccc(OCC(=O)O)cc2)NC(=O)[C@H](CN)NC(=O)CSC[C@@H](C(=O)N[C@@H](C)C(N)=O)NC(=O)[C@H]([C@@H](C)O)NC(=O)[C@H](C(C)C)NC(=O)[C@H](CCc2ccccc2)NC(=O)[C@H](CCN)NC1=O [Compound 1364] ({CH2CO}-[Dap]Y(Carboxymethyl)DWV[Bip][Cit][Orn][dL][Dab][hPhe]VTCA-NH2; thioether N-14)
14 | 7.37 | CC(C)C[C@@H]1NC(=O)[C@H](CCN)NC(=O)[C@@H](CC(C)C)NC(=O)[C@H](CCCN)NC(=O)[C@H](CCCNC(N)=O)NC(=O)[C@H](Cc2ccc(-c3ccccc3)cc2)NC(=O)[C@H](C(C)C)NC(=O)[C@H](Cc2c[nH]c3ccccc23)NC(=O)[C@H](CC(=O)O)NC(=O)[C@H](Cc2ccc(O)cc2)NC(=O)[C@H](Cc2cccnc2)NC(=O)CSC[C@@H](C(=O)N[C@@H](C)C(N)=O)NC(=O)[C@H]([C@@H](C)O)NC(=O)[C@H](C(C)C)NC1=O [Compound 1041] ({CH2CO}-[3Pal]YDWV[Bip][Cit][Orn][dL][Dab]LVTCA-NH2; thioether N-14)
15 | 8.25 | Cc1cccc(C[C@@H]2NC(=O)[C@H](CC(=O)O)NC(=O)[C@H](Cc3ccc(OCC(=O)O)cc3)NC(=O)[C@H](Cc3cccnc3)NC(=O)CSC[C@@H](C(=O)N[C@@H](C)C(N)=O)NC(=O)[C@H]([C@@H](C)O)NC(=O)[C@H](C(C)C)NC(=O)[C@H](CC(C)C)NC(=O)[C@H](CCN)NC(=O)[C@@H](CC(C)C)NC(=O)[C@H](CCCN)NC(=O)[C@H](C(C)C)NC(=O)[C@H](Cc3ccc(-c4ccccc4)cc3)NC(=O)[C@H](C(C)C)NC2=O)c1 [Compound 1218] ({CH2CO}-[3Pal]Y(Carboxymethyl)D[Phe(3-Me)]V[Bip]V[Orn][dL][Dab]LVTCA-NH2; thioether N-14)
